Assay results reported in PubChem BioAssay AID1963986 (Molecular Pharmacology Branch, DTP, NCI, 2024).
Where “and” joins values, the source holds several entries; their conditions need not be identical. Equal entries are not always repeated.

System: 171881-019-R-J1-PDC tumor spheroid viability
Experiment: Anticancer human tumor 171881-019-R-J1-PDC patient-derived invasive breast carcinoma cell line growth inhibition [PI3K]
Settings: spheroids with HUVEC and MSC; for viability, T/C: stronger effect = lower value
Description: Combinatorial screen of targeted agents with the PI3K inhibitors inavolisib, alpelisib, duvelisib, and copanlisib in multi-cell type tumor spheroids
A high-throughput screen of multi-cell type tumor spheroids was designed to identify active combinations of targeted small molecules and PI3K pathway inhibitors. Complex spheroids include a stromal component modeled by human endothelial cells (HUVEC) and fibroblasts modeled by human mesenchymal stem cells (MSCs). The concentration ranges selected for each drug and investigational agent were based upon clinically achievable concentrations if the clinical Cmax of the agent was known.
Compounds. The drugs and investigational agents: inavolisib (NSC800729), alpelisib (NSC765974), duvelisib (NSC772469), copanlisib (NSC816437), ipatasertib (NSC767898), afuresertib (NSC778305), talazoparib (NSC767125), sapanisertib (NSC764658), selumetinib (NSC741078), tovorafenib (DAY101, NSC766906), vemurafenib (NSC761431), ravoxertinib (NSC781343), sotorasib (NSC818433), MRTX1133 (NSC 836407), abemaciclib (NSC 768073), palbociclib (NSC758247), venetoclax (NSC 766270), SY5609 (NSC837396), enzalutamide (NSC755605), and darolutamide (NSC825331), were obtained from the National Cancer Institute (NCI) Developmental Therapeutics Program Chemical Repository. The FDA-approved anticancer drug set is available from the NCI Developmental Therapeutics Program. […] The stock solutions were prepared in dimethyl sulfoxide (DMSO, Sigma-Aldrich, St. Louis, MO, cat. D2650) at 800-fold the tested concentration and stored at -70 degrees C prior to their use. All drugs and investigational agents were tested over a range starting from a high concentration at or near the clinical Cmax and decreasing in half-log increments. If the clinical Cmax for an agent had not been determined, the highest concentration tested was 10 microM.
Cell Culture. All cells were maintained in an incubator at 37 degrees C and 5% CO2 with 95% humidity. The PDC lines were cultured according to standard operating procedures established by the NCI PDMR (https://pdmr.cancer.gov/sops/default.htm). All PDCs were thawed and cultured in Matrigel-coated flasks prepared with a working solution of 1X Ham's F-12 nutrient mix, without supplementation (Invitrogen, Waltham, MA, cat. 11765054), 100 U/mL penicillin-streptomycin (Invitrogen, cat. 15140122), and 2.5% Matrigel (Corning Inc., Corning, NY, cat. 354248) for the first three passages. The 354836-022-R-J1-PDC, 475296-252-R-J1-PDC, and 997726-040-R-J2-PDC lines were cultured in 6A media, which includes advanced DMEM/F-12 (Thermo Fisher Scientific, cat. 12634028), 10 mM HEPES (Thermo Fisher Scientific, cat. 15630080), 1X GlutaMAX supplement (Thermo Fisher Scientific, cat. 35050061), 0.1 mg/mL primocin (InvivoGen, San Diego, CA, cat. ant-pm-2), 10% defined fetal bovine serum, heat inactivated (HyClone Laboratories Inc., Logan, UT, cat. SH30070.03HI), 50% L-WRN conditioned media (ATCC, cat. CRL-3276), 1.25 mM N-Acetyl-L-cysteine (Sigma-Aldrich, cat. A9165), 10 mM nicotinamide (Sigma-Aldrich, cat. N0636), 1X B-27 supplement (Thermo Fisher Scientific, cat. 17504044), 1X N-2 supplement (Thermo Fisher Scientific, cat. 17502048), and 10 microM Y-27632 dihydrochloride (Tocris Bioscience, Bristol, United Kingdom, cat. 1254). The 624824-186-R-J2-PDC line was cultured in 6C/Colon 1B media, which includes all 6A media components plus 50 ng/mL human EGF recombinant protein (Thermo Fisher Scientific, cat. PHG0311). […]
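Further: spheroids exposed to compound for 7 days before viability read.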
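Wherever viability, T/C is given: 100% = DMSO vehicle-treated spheroids.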

Question: How did the viability, T/C (compound 0.0316 µM) turn out when `C#Cc1c(F)ccc2cc(O)cc(-c3ncc4c(N5CC6CCC(C5)N6)nc(OCC56CCCN5CC(F)C6)nc4c3F)c12` (stereo not given) was run?
Answer: 86.7% [middle of 4 runs]

Question: What about the viability, T/C (compound 0.1 µM) of the same molecule?
Answer: 70.6% [middle of 4 runs]

Question: What about the viability, T/C (compound 0.316 µM) of the same molecule?
Answer: 53.7% [middle of 4 runs]

Question: And the viability, T/C (compound 1 µM)?
Answer: 40.4% [middle of 4 runs]

Question: What about the viability, T/C (compound 3.16 µM) of the same molecule?
Answer: 35.4% [middle of 4 runs]

Question: What about the viability, T/C (compound 10 µM) of the same molecule?
Answer: 27.9% [middle of 4 runs]

Question: And the IC50 (curve of compound)?
Answer: 425 nM [middle of 4 runs]

Question: Which results are given for `C=CC(=O)N1CCN(c2nc(=O)n(-c3c(C)ccnc3C(C)C)c3nc(-c4c(O)cccc4F)c(F)cc23)C(C)C1` (stereo not given)?
Answer: viability, T/C (compound 0.0316 µM): 95.3% [middle of 4 runs]; viability, T/C (compound 0.1 µM): 84.4% [middle of 4 runs]; viability, T/C (compound 0.316 µM): 92.5% [middle of 4 runs]; viability, T/C (compound 1 µM): 94.6% [middle of 4 runs]; viability, T/C (compound 3.16 µM): 91.7% [middle of 4 runs]; viability, T/C (compound 10 µM): 56.1% [middle of 4 runs]; IC50 (curve of compound): > 10000 nM

Question: For `CC1(C)CCC(Nc2ncc(C(F)(F)F)c(-c3c[nH]c4c(P(C)(C)=O)c(C#N)ccc34)n2)CN1` (stereo not given), which viability, T/C (compound 0.0316 µM) is on record?
Answer: 72.4% [middle of 4 runs]

Question: What about the viability, T/C (compound 0.1 µM) of the same molecule?
Answer: 70.7% [middle of 4 runs]

Question: And the viability, T/C (compound 0.316 µM)?
Answer: 78.8% [middle of 4 runs]

Question: And the viability, T/C (compound 1 µM)?
Answer: 82.7% [middle of 4 runs]

Question: What about the viability, T/C (compound 3.16 µM) of the same molecule?
Answer: 86.8% [middle of 4 runs]

Question: And the viability, T/C (compound 10 µM)?
Answer: 24% [middle of 4 runs]

Question: What about the IC50 (curve of compound) of the same molecule?
Answer: 5.87 µM [middle of 4 runs]

Question: For `Cn1ncc(Cl)c1-c1cc(C(=O)NC(CN)Cc2cccc(F)c2)sc1Cl` (stereo not given), which viability, T/C (compound 0.0316 µM) is on record?
Answer: 80.2% [middle of 4 runs]

Question: And the viability, T/C (compound 0.1 µM)?
Answer: 55.6% [middle of 4 runs]

Question: What about the viability, T/C (compound 0.316 µM) of the same molecule?
Answer: 34% [middle of 4 runs]

Question: What about the viability, T/C (compound 1 µM) of the same molecule?
Answer: 21.5% [middle of 4 runs]

Question: And the viability, T/C (compound 3.16 µM)?
Answer: 13.1% [middle of 4 runs]

Question: And the viability, T/C (compound 10 µM)?
Answer: 4.48% [middle of 4 runs]

Question: And the IC50 (curve of compound)?
Answer: 121 nM and 127 nM and 155 nM

Question: How did the IC50 (curve of first compound, second compound 0.00316 µM) turn out when `Cn1cnc2c(F)c(Nc3ccc(Br)cc3Cl)c(C(=O)NOCCO)cc21` + CC(Nc1ccc2c(c1)OCCn1cc(N3C(=O)OCC3C(F)F)nc1-2)C(N)=O was run?
Answer: 422 nM

Question: And the IC50 (curve of first compound, second compound 0.01 µM)?
Answer: 71 nM

Question: And the IC50 (curve of first compound, second compound 0.0316 µM)?
Answer: < 9.49 nM

Question: And the IC50 (curve of first compound, second compound 0.1 µM)?
Answer: < 9.49 nM

Question: What about the IC50 (curve of first compound, second compound 0.316 µM) of the same molecule?
Answer: < 9.49 nM

Question: And the IC50 (curve of first compound, second compound 1 µM)?
Answer: < 9.49 nM

Question: What about the viability, T/C (second compound 0.00316 µM, first compound 0.00949 µM) of the same molecule?
Answer: 63.8%

Question: And the viability, T/C (second compound 0.00316 µM, first compound 0.03 µM)?
Answer: 71.5%

Question: And the viability, T/C (second compound 0.00316 µM, first compound 0.0949 µM)?
Answer: 64.9%

Question: And the viability, T/C (second compound 0.00316 µM, first compound 0.3 µM)?
Answer: 56.4%

Question: And the viability, T/C (second compound 0.00316 µM, first compound 0.949 µM)?
Answer: 34.3%

Question: What about the viability, T/C (second compound 0.00316 µM, first compound 3 µM) of the same molecule?
Answer: 15.4%

Question: And the viability, T/C (second compound 0.01 µM, first compound 0.00949 µM)?
Answer: 60.4%

Question: And the viability, T/C (second compound 0.01 µM, first compound 0.03 µM)?
Answer: 54.8%

Question: And the viability, T/C (second compound 0.01 µM, first compound 0.0949 µM)?
Answer: 46.9%

Question: And the viability, T/C (second compound 0.01 µM, first compound 0.3 µM)?
Answer: 40.9%

Question: And the viability, T/C (second compound 0.01 µM, first compound 0.949 µM)?
Answer: 23.9%

Question: What about the viability, T/C (second compound 0.01 µM, first compound 3 µM) of the same molecule?
Answer: 10.1%

Question: What about the viability, T/C (second compound 0.0316 µM, first compound 0.00949 µM) of the same molecule?
Answer: 44.8%

Question: And the viability, T/C (second compound 0.0316 µM, first compound 0.03 µM)?
Answer: 38.7%

Question: What about the viability, T/C (second compound 0.0316 µM, first compound 0.0949 µM) of the same molecule?
Answer: 33.9%

Question: What about the viability, T/C (second compound 0.0316 µM, first compound 0.3 µM) of the same molecule?
Answer: 26.8%

Question: And the viability, T/C (second compound 0.0316 µM, first compound 0.949 µM)?
Answer: 16.4%

Question: What about the viability, T/C (second compound 0.0316 µM, first compound 3 µM) of the same molecule?
Answer: 6.34%

Question: What about the viability, T/C (second compound 0.1 µM, first compound 0.00949 µM) of the same molecule?
Answer: 30.6%

Question: And the viability, T/C (second compound 0.1 µM, first compound 0.03 µM)?
Answer: 27.1%

Question: What about the viability, T/C (second compound 0.1 µM, first compound 0.0949 µM) of the same molecule?
Answer: 24.2%

Question: And the viability, T/C (second compound 0.1 µM, first compound 0.3 µM)?
Answer: 17.7%

Question: What about the viability, T/C (second compound 0.1 µM, first compound 0.949 µM) of the same molecule?
Answer: 9.75%

Question: And the viability, T/C (second compound 0.1 µM, first compound 3 µM)?
Answer: 2.93%

Question: And the viability, T/C (second compound 0.316 µM, first compound 0.00949 µM)?
Answer: 20.9%

Question: What about the viability, T/C (second compound 0.316 µM, first compound 0.03 µM) of the same molecule?
Answer: 18.9%

Question: And the viability, T/C (second compound 0.316 µM, first compound 0.0949 µM)?
Answer: 15.3%

Question: And the viability, T/C (second compound 0.316 µM, first compound 0.3 µM)?
Answer: 11.7%

Question: And the viability, T/C (second compound 0.316 µM, first compound 0.949 µM)?
Answer: 4.97%

Question: What about the viability, T/C (second compound 0.316 µM, first compound 3 µM) of the same molecule?
Answer: 1.75%

Question: What about the viability, T/C (second compound 1 µM, first compound 0.00949 µM) of the same molecule?
Answer: 16.9%

Question: What about the viability, T/C (second compound 1 µM, first compound 0.03 µM) of the same molecule?
Answer: 13.7%

Question: And the viability, T/C (second compound 1 µM, first compound 0.0949 µM)?
Answer: 12.7%

Question: And the viability, T/C (second compound 1 µM, first compound 0.3 µM)?
Answer: 8.33%

Question: What about the viability, T/C (second compound 1 µM, first compound 0.949 µM) of the same molecule?
Answer: 2.91%

Question: What about the viability, T/C (second compound 1 µM, first compound 3 µM) of the same molecule?
Answer: 1.25%
